Data: US9938587B2 (priority 2011, dated 2018)

Columns and labels:
[1] = tested on: DNA repair reporter vectors; assay: HCR of DNA repair reporter vectors treated with Cisplatin; assay type: cell-based; settings: reporter vectors treated with Cisplatin before transfection; effect more pronounced in XPA and XPF deficient cells
MGMT = target: T1, MGMT (Homo sapiens, UniProt P16455); assay: O^6Methylguanine HCR (mPlum:T208C reporter), MGMT dependence of signal; assay type: cell-based; settings: TK6+MGMT cells incubated with compound before and after transfection
T1 construct: expressed in transfected cells; host or cells: TK6 lymphoblastoid cells (MGMT-deficient) complemented with MGMT (TK6+MGMT)
T1 sequence (P16455 1-207): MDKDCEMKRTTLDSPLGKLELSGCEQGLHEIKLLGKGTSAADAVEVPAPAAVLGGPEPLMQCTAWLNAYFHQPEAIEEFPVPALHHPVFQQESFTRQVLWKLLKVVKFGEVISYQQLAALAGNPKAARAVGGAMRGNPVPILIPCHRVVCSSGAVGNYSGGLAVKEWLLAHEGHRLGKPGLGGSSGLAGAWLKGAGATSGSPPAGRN
Method: FIG. 46 is a bar graph showing that the lack of signal is MGMT dependent. BnG stands for O^6-benzylguanine, which inhibits MGMT.
FIG. 44 is an illustration providing an assay for O^6Methylguanine HCR. An […] in fluorescence is expected when the reporter plasmid containing the mPlum:T208C mutation is treated with an agent that induces O^6MeG.
FIG. 46 is a bar graph showing that the lack of signal is MGMT dependent. Reporter expression has been normalized to that for TK6. As expected, the highest reporter expression is observed in MGMT deficient cells.

[2] = tested on: fluorescent reporter plasmid DNA; assay: HCR of plasmids containing etheno lesions induced by CAA; assay type: cell-based, Human; settings: plasmids treated with CAA; lymphoblastoid cell lines
Text: Dose and cell line dependent inhibition of transcription in plasmids treated with CAA is shown at right.

N.N.[Cl][Pt][Cl] [Cisplatin] was tested, and the fluorescent reporter expression [1] was “suppresses florescent reporter expression in a dose dependent manner”.

For Nc1nc(OCc2ccccc2)c2nc[nH]c2n1 [O^6Benzylguanine, O^6-benzylguanine], the “reporter expression normalized to TK6” value (MGMT) was “elevated reporter expression similar to that of the MGMT deficient TK6 cells”.

O=CCCl [chloroacetaldehyde] was tested, and the fluorescent reporter expression [2] was “dose-dependent decrease in fluorescent reporter expression”.
